According to patent US20200109114A1, “SOLID STATE FORMS OF N-[2-[(I S)-1 -(3-ETHOXY-4-METHOXYPHENYL)-2-(METHYL SULFONYL)ETHYL]-2,3-DIHYDRO-1,3-DIOXO-L H-ISOINDOL-4-YL]ACETAMIDE AND PROCESS FOR PREPARATION THEREOF” (MSN LABORATORIES PRIVATE LIMITED, R&D CENTER, priority 2016, published 2020):

Legend:
[1] = Hygroscopicity of crystalline form-M; type: physicochemical
Source text: The crystalline form-M of compound of formula-1 of the present invention is non-hygroscopic in nature which is highly advantageous for the formulators.

[2] = Solid state stability of crystalline form-M at various conditions (stress, UV light, thermal, humidity); type: physicochemical
Method: The crystalline form-M of the present invention is stable at various conditions viz.,
a) Stress (10 ton pressure, 3 min) b) UV light (254 nm, 24 hrs) c) Thermal (60° C., 24 hrs) d) Hygroscopicity (75% RH, 24 hrs))

- hygroscopic nature [1]: non-hygroscopic
- stability under hygroscopicity condition ([2]; Hygroscopicity (75% RH, 24 hrs)): stable
- stability under stress ([2]; Stress (10 ton pressure, 3 min)): stable
- thermal stability ([2]; Thermal (60° C., 24 hrs)): stable
- stability under UV light ([2]; UV light (254 nm, 24 hrs)): stable
Compound: CCOc1cc([C@@H](CS(C)(=O)=O)N2C(=O)c3cccc(NC(C)=O)c3C2=O)ccc1OC [crystalline form-M, N-[2-[(1S)-1-(3-ethoxy-4-methoxyphenyl)-2-(methylsulfonyl)ethyl]-2,3-dihydro-1,3-dioxo-1H-isoindol-4-yl]acetamide]
